Laboratory results published in PubChem BioAssay (NCI).
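Protocol summary: plate cells (96-well), add compound at 5 concentrations, incubate 48 h, interpolate endpoints linearly. GI50: concentration for 50% inhibition of growth. TGI denotes the concentration required for complete inhibition of growth.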

What was measured:
Test in all cases: NCI anticancer screen, dose series, 48 h
UACC-62 melanoma = tested on: UACC-62 melanoma
HOP-62 NSCLC = tested on: HOP-62 NSCLC
MOLT-4 leukemia = tested on: MOLT-4 leukemia
NCI-H460 lung = tested on: NCI-H460 lung
UO-31 renal = tested on: UO-31 renal
OVCAR-3 ovarian = tested on: OVCAR-3 ovarian
CAKI-1 renal = tested on: CAKI-1 renal
SK-OV-3 ovarian = tested on: SK-OV-3 ovarian
HOP-18 NSCLC = tested on: HOP-18 NSCLC
HCT-116 colon = tested on: HCT-116 colon
MCF7 breast = tested on: MCF7 breast
OVCAR-4 ovarian = tested on: OVCAR-4 ovarian

SMILES	TGI (UACC-62 melanoma)	TGI (HOP-62 NSCLC)	TGI (MOLT-4 leukemia)	TGI (NCI-H460 lung)	TGI (UO-31 renal)	TGI (OVCAR-3 ovarian)	TGI (CAKI-1 renal)	TGI (SK-OV-3 ovarian)	TGI (HOP-18 NSCLC)	TGI (HCT-116 colon)	TGI (MCF7 breast)	TGI (OVCAR-4 ovarian)	GI50 (MCF7 breast)	GI50 (NCI-H460 lung)
CCOC(=O)CC[C@@H](NC(=O)c1ccc(N[C@@H]2c3cc4c(cc3C(c3cc(OC)c(O)c(OC)c3)C3C(=O)OC[C@@H]32)OCO4)cc1)C(=O)OCC (stereo partly drawn)	0.0557 µM	0.0424 µM	> 10 µM	0.0174 µM	0.194 µM	0.37 µM	0.0539 µM	0.0656 µM	> 10 µM	–	–	–	–	–
CC(c1cccc2ccccc12)/[N+]([O-])=C/c1ccccc1 (stereo not drawn)	–	> 100 µM	> 100 µM	> 100 µM	> 100 µM	> 100 µM	–	> 100 µM	> 100 µM	> 100 µM	–	–	–	–
N=C1C(=N)c2ccccc2-c2ccccc21	2.78 µM	3.04 µM	1.61 µM	2.88 µM	2.96 µM	1.41 µM	3.08 µM	3.07 µM	–	1.2 µM	2.27 µM	2.78 µM	–	–
COC(=O)[C@H](Cc1ccccc1)NC(=O)N1CCN(C(=O)N[C@@H](Cc2ccccc2)C(=O)OC)CCN(C(=O)N[C@@H](Cc2ccccc2)C(=O)OC)CC1	> 100 µM	> 100 µM	> 100 µM	> 100 µM	> 100 µM	> 100 µM	> 100 µM	> 100 µM	–	> 100 µM	> 100 µM	> 100 µM	–	–
CC1=NN(C(=O)Cc2ccccc2)C(=O)/C1=C\C=C\c1ccccc1	–	> 100 µM	> 100 µM	–	> 100 µM	> 100 µM	> 100 µM	–	> 100 µM	> 100 µM	–	> 100 µM	–	–
COc1ccc2c3ccc4c(c3n(C)c2c1)C(=O)c1ccccc1C4=O	> 100 µM	> 100 µM	> 100 µM	–	> 100 µM	–	–	> 100 µM	> 100 µM	> 100 µM	–	> 100 µM	–	–
COC(=O)CC1C(=O)OCc2c1cc1n(c2=O)Cc2c-1nc1ccccc1c2OC (stereo not drawn)	> 100 µM	> 100 µM	32.3 µM	> 100 µM	> 100 µM	–	34.4 µM	> 100 µM	> 100 µM	> 100 µM	–	> 100 µM	–	–
CCOP(=O)(OCC)/C(C#N)=C/c1ccco1	> 100 µM	> 100 µM	> 100 µM	> 100 µM	> 100 µM	–	> 100 µM	> 100 µM	> 100 µM	> 100 µM	–	> 100 µM	–	–
CCC1(N=[N+]=[N-])C(=O)Nc2cc(C)ccc2C1=O (stereo not drawn)	> 100 µM	> 100 µM	> 100 µM	> 100 µM	> 100 µM	> 100 µM	> 100 µM	> 100 µM	> 100 µM	> 100 µM	–	> 100 µM	–	–
COc1ccc(C2C(Cl)C(=O)N2NC(=O)Cc2ccccc2)cc1 (stereo not drawn)	> 100 µM	> 100 µM	> 100 µM	> 100 µM	> 100 µM	> 100 µM	> 100 µM	> 100 µM	> 100 µM	> 100 µM	–	> 100 µM	–	–
S=C(Nc1cccc(Cl)c1)Nc1ccccn1	> 100 µM	> 100 µM	> 100 µM	> 100 µM	> 100 µM	> 100 µM	> 100 µM	> 100 µM	–	> 100 µM	> 100 µM	> 100 µM	–	–
O=C(Nc1nc(C23CC4CC(CC(C4)C2)C3)cs1)c1cc2cc(Br)cc(Br)c2oc1=O	> 100 µM	> 100 µM	> 100 µM	> 100 µM	> 100 µM	> 100 µM	> 100 µM	> 100 µM	–	> 100 µM	> 100 µM	> 100 µM	–	–
CNC(=O)CCNC(=O)CCC(=O)OC	> 100 µM	> 100 µM	> 100 µM	> 100 µM	> 100 µM	> 100 µM	> 100 µM	> 100 µM	–	> 100 µM	> 100 µM	> 100 µM	–	–
COC(=N)C12C(N)=NC(OC)(OC)C1(C#N)C21C(=O)N(c2ccccc2)N=C1C (stereo not drawn)	> 100 µM	> 100 µM	> 100 µM	> 100 µM	> 100 µM	> 100 µM	> 100 µM	> 100 µM	–	> 100 µM	> 100 µM	> 100 µM	–	–
CCCCCCCCCCCCCCCCP(=O)(O)OP(=O)(O)OCC1OC(n2cnc3c(N)ncnc32)C(O)C1O (stereo not drawn)	69.2 µM	37.3 µM	76.4 µM	58.4 µM	30 µM	88.1 µM	64.4 µM	> 100 µM	–	47.3 µM	45.7 µM	> 100 µM	–	–
c1ccc2sc(C3(N4CCCCC4)CCCC3)cc2c1	29.4 µM	28.8 µM	19.8 µM	20.7 µM	33.8 µM	21.8 µM	38.4 µM	31.4 µM	–	19.9 µM	21.5 µM	23.7 µM	–	–
O=[N+]([O-])C(=C(N1CCOCC1)N1CCOCC1)/C(Cl)=C(\Cl)[N+](=O)[O-]	34.8 µM	29.8 µM	> 100 µM	70.7 µM	18 µM	13.5 µM	3.04 µM	> 100 µM	–	4.28 µM	7.73 µM	30.7 µM	–	–
COC[n+]1cc2cc(OC)c(OC)cc2c2ccc3cc(OC)c(OC)cc3c21	> 100 µM	> 100 µM	> 100 µM	> 100 µM	> 100 µM	> 100 µM	> 100 µM	–	> 100 µM	> 100 µM	–	> 100 µM	–	–
O=C1N=C(c2ccccc2)O/C1=C\c1ccccc1	> 100 µM	> 100 µM	> 100 µM	> 100 µM	> 100 µM	> 100 µM	> 100 µM	> 100 µM	–	> 100 µM	> 100 µM	> 100 µM	–	–

SMILES	TGI (UACC-62 melanoma)	TGI (HOP-62 NSCLC)	TGI (MOLT-4 leukemia)	TGI (NCI-H460 lung)	TGI (UO-31 renal)	TGI (OVCAR-3 ovarian)	TGI (CAKI-1 renal)	TGI (SK-OV-3 ovarian)	TGI (HOP-18 NSCLC)	TGI (HCT-116 colon)	TGI (MCF7 breast)	TGI (OVCAR-4 ovarian)	GI50 (MCF7 breast)	GI50 (NCI-H460 lung)
CC(C)CCC[C@@H](C)C1CCC2[C@@H]3CCC4CC(CCC=C(c5cc(Cl)c(OC(=O)c6ccccc6)c(C(=O)O)c5)c5cc(Cl)c(OC(=O)c6ccccc6)c(C(=O)O)c5)CC[C@]4(C)C3CC[C@@]21C (stereo partly drawn)	> 100 µM	> 100 µM	> 100 µM	> 100 µM	> 100 µM	> 100 µM	> 100 µM	> 100 µM	–	> 100 µM	> 100 µM	> 100 µM	–	–
CCCCCc1c2nc(c(CCCCC)c3ccc([nH]3)c(CCCCC)c3ccc([nH]3)c(CCCCC)c3nc1C=C3)C=C2	> 100 µM	> 100 µM	> 100 µM	> 100 µM	> 100 µM	> 100 µM	> 100 µM	> 100 µM	–	> 100 µM	> 100 µM	> 100 µM	–	–
C=C(C)[C@@H]1CC[C@]2(C(=O)O)CC[C@]3(C)[C@H](CC[C@@H]4[C@@]5(C)CC[C@H](C(=O)/C=C/c6ccc(O)cc6)C(C)(C)[C@@H]5CC[C@]43C)[C@@H]12	30 µM	27.8 µM	51.6 µM	17.3 µM	18.4 µM	10.3 µM	9.43 µM	36.3 µM	–	> 100 µM	11.5 µM	72.4 µM	–	–
CCCCc1c2c(nc3c1CCC/C3=C\c1ccccc1)C(=O)C(CN(C)C)CC2 (stereo not drawn)	48.4 µM	34.1 µM	11.5 µM	34.5 µM	33.7 µM	39.9 µM	–	40.6 µM	38.5 µM	32.6 µM	15.7 µM	22.9 µM	–	–
CN(C)CCNc1ccc2c(=O)n(CCN(C)C)c(=O)n3c4ccc(N)cc4c(=O)c1c23	1.21 µM	1.15 µM	0.161 µM	0.56 µM	0.346 µM	1.22 µM	4.76 µM	2.7 µM	–	0.166 µM	0.242 µM	0.996 µM	–	–
O=C1CC2(CCC(O)(c3ccc(Cl)cc3)C(C(=O)c3ccc(Cl)cc3)C2)C(=O)c2ccccc2N1 (stereo not drawn)	> 52.8 µM	> 100 µM	8.56 µM	> 100 µM	49.9 µM	> 100 µM	> 40.9 µM	35.1 µM	–	> 100 µM	> 100 µM	> 100 µM	–	–
CCCNC(=S)/N=C\c1c(O)c2ccccc2oc1=O	> 100 µM	> 100 µM	> 100 µM	> 100 µM	> 100 µM	> 100 µM	> 100 µM	> 100 µM	–	> 100 µM	> 100 µM	> 100 µM	–	–
O=C1/C(=C\c2cccc(Oc3ccccc3)c2)SC(c2ccccc2)N1c1ccc(Cl)cc1 (stereo not drawn)	> 100 µM	> 100 µM	> 63.6 µM	> 100 µM	> 100 µM	> 100 µM	> 100 µM	> 100 µM	–	> 100 µM	> 100 µM	> 100 µM	–	–
CC(=O)O[C@H]1C(=O)[C@@]2(C)[C@H]([C@H](OC(=O)C3CCCCC3)[C@]3(O)C[C@H](OC(=O)[C@H](O)[C@@H](NC(=O)C4CCCCC4)C4CCCCC4)C(C)=C1C3(C)C)[C@]1(OC(C)=O)CO[C@@H]1C[C@@H]2O	3.89 µM	0.803 µM	4.18 µM	3.87 µM	6.23 µM	0.0355 µM	8.02 µM	19.2 µM	–	3.33 µM	4.36 µM	11.8 µM	–	–
O=S1(=O)CCN(Cc2ccccc2)/C1=N\S(=O)(=O)c1ccc(Cl)cc1	32 µM	> 100 µM	49.9 µM	48 µM	32.5 µM	36.1 µM	33.2 µM	> 100 µM	–	33 µM	42.4 µM	36.2 µM	–	–
CCOC(=O)CCC(NC(=O)c1ccc(Nc2nc3cc(C(F)(F)F)ccc3nc2-c2ccccc2)cc1)C(=O)OCC (stereo not drawn)	> 100 µM	> 100 µM	> 100 µM	> 100 µM	> 100 µM	> 100 µM	> 100 µM	> 100 µM	–	> 100 µM	> 100 µM	> 100 µM	–	–
Cc1cc2oc(=O)[nH]c(=S)c2c(C)c1C	> 100 µM	> 100 µM	> 100 µM	> 100 µM	> 100 µM	> 100 µM	–	> 100 µM	> 100 µM	> 100 µM	–	> 100 µM	–	–
CCN(CC)Cc1cc(Nc2c3ccccc3nc3c2[nH]c2ccccc23)ccc1O	3.01 µM	3.16 µM	> 100 µM	2.71 µM	3.56 µM	–	4.2 µM	6.83 µM	5.39 µM	1.91 µM	–	3.32 µM	–	–
C=C[C@H]1CN2CCc3c([nH]c4c([C@H]5CCCN5C)c(O)ccc34)[C@@H]2C[C@@H]1C[C@H]1c2[nH]c3ccccc3c2CCN1C	3.16 µM	3 µM	5.32 µM	3.53 µM	3.24 µM	3 µM	3.17 µM	3.31 µM	–	2.61 µM	2.22 µM	3.27 µM	1.05 µM	1.74 µM
C[Si](C)(C)OC1c2[nH]c3ccccc3c2CN2C(=O)CCC12 (stereo not drawn)	> 100 µM	> 100 µM	> 100 µM	> 100 µM	> 100 µM	> 100 µM	> 100 µM	> 100 µM	–	> 100 µM	> 100 µM	> 100 µM	–	–
Cc1ccccc1N(C)S(=O)(=O)c1ccccc1[N+](=O)[O-]	> 100 µM	> 100 µM	> 100 µM	> 100 µM	> 100 µM	> 100 µM	> 100 µM	> 100 µM	–	> 100 µM	> 100 µM	> 100 µM	–	–
COc1cc2cc(C(=O)N3CC(CCl)c4ccc(NCCN)cc43)[nH]c2c(OC)c1OC (stereo not drawn)	0.35 µM	0.645 µM	0.356 µM	4 µM	0.382 µM	0.579 µM	1 µM	1.16 µM	–	> 32.7 µM	3.45 µM	3.06 µM	–	–
C/C=C(/C)C(=O)O[C@H]1C(C)=C[C@]23C(=O)[C@@H](C=C(COC(C)=O)[C@@H](O)[C@]12O)[C@H]1[C@@H](C[C@H]3C)[C@@]1(C)OC(=O)/C(C)=C\C	5.69 µM	5.25 µM	3.56 µM	4.09 µM	2.16 µM	5.99 µM	6.14 µM	8.2 µM	–	9.77 µM	6.11 µM	6.33 µM	–	–
